Reference: US6541500B1, “Fungicide mixture” (BASF Aktiengesellschaft, priority 1998, dated 2003)

Test system: mildew of wheat (Erysiphe graminis forma specialis tritici)
Assay: Action against mildew of wheat (wheat seedlings cv. Kanzler, protective spray)
Assay type: in vivo
Settings: single active ingredient, wheat leaves, 7 days after inoculation
Experimental: The active compounds, separately or together, are formulated as a 10% strength emulsion in a mixture of 70% by weight of cyclohexanone, 20% by weight of Nekanil® LN (Lutensol® AP6, wetting agent having emulsifying and dispersing action based on ethoxylated alkylphenols) and 10% by weight of Emulphor® EL (Emulan® EL, emulsifier based on ethoxylated fatty alcohols) and diluted with water to the desired concentration.
Evaluation is carried out by determining the infected leaf areas in percent. These percentages are converted into efficacies. The expected efficacies of the mixtures of the active compounds are determined using Colby's formula [R. S. Colby, Weeds 15, 20-22 (1967)] and compared with the observed efficacies.
At an efficacy of 0, the infection level of the treated plants corresponds to that of the untreated control plants; at an efficacy of 100, the treated plants are not infected.
Leaves of wheat seedlings of the cultivar “Kanzler”, grown in pots, were sprayed to run-off point with an aqueous formulation of active ingredient which had been prepared using a stock solution comprising 10% of active ingredient, 63% of cyclohexanone and 27% of emulsifier, and 24 h after the spraycoating had dried on the leaves were dusted with spores of mildew of wheat (Erysiphe graminis forma specialis tritici). The test plants were subsequently placed in climatized chambers at 20-24° C. and 60-90% relative atmospheric humidity for 7 days. The extent of the development of the disease on the leaves was then evaluated visually.
The visually determined values for the percentage of diseased leaf area were converted into efficacies in % of the untreated control. An efficacy of 0 means the same disease level as in the untreated control, an efficacy of 100 means a disease level of 0%. The expected efficacies for the active ingredient combinations were determined using Colby's formula (Colby, S. R. “Calculating synergistic and antagonistic responses of herbicide combinations”, Weeds, 15, pp. 20-22, 1967) and compared with the observed efficacies. […]

Fc1ccc(Oc2ccnc3cc(Cl)cc(Cl)c23)cc1 [I.78, quinoxyfen]
Efficacy in % of the untreated control (conc. 0.06 ppm): 0%
Efficacy in % of the untreated control (conc. 0.25 ppm): 0%
Efficacy in % of the untreated control (conc. 1 ppm): 33%
